Marks after values point to notes of the source that are not given here.
How the values were obtained:
[1] = Plasma biological parameters after NCP-supplemented diet in rats; format: in vivo
Procedure: (§1) Eight-week old Sprague-Dawley rats (Charles Rivers, Lyon, France) were used. They were placed in individual cages and acclimatized for two weeks to our animal facility. During this period they received standard rodent chow (A04, UAR, Villemoisson-sur-Orge, France) and water ad libitum.
(§2) After acclimatization twenty eight-month old rats were randomized into three groups in order to receive for two weeks a standard diet either alone (n=6; control group) or supplemented with NCP either 5 mg/kg/d (n=7, NCP5 group) or 50 mg/kg/d (n=7; NCP50 group). Their weight, behaviour and mortality were monitored throughout the feeding period.
(§3) At the end of the feeding period, the rats, in the fasted state, were anesthetized by isoflurane inhalation and euthanized by decapitation.
(§4) Mixed blood was collected onto heparinized tubes and rapidly centrifuged. The liver was immediately removed and weighed, and a sample was cut off, frozen in liquid nitrogen, and stored at −80° C. until analysis. For the jejunum and ileum, the intestine was washed with cold NaCl (0.9%) and reverted. Thereafter the intestinal mucosa was scraped, rapidly frozen in liquid nitrogen, and stored at −80° C. until analysis. Two muscles of the hindlimb, tibialis (rich in type II fibres) and soleus (rich in type I fibres), and the right kidney were rapidly removed, weighed, frozen in liquid nitrogen, and stored at −80° C. until analysis. Body composition was assessed by dissection and lean mass (carcass), visceral fat mass, sub-cutaneous fat mass (subcutaneous fat and skin) and mass of the viscera were determined.
(§5) Biological parameters studied were: • in tissues: NCP, protein and amino acid contents • in plasma: amino acids, liver function tests (plasma aspartate aminotransferase, alanine aminotransferase, alkaline phosphatase, and bilirubin), muscle enzymes (plasma creatine kinase, and lactate dehydrogenase), plasma electrolytes (sodium, potassium, chloride, bicarbonates), total protein, urea, creatinine, calcium, phosphate, magnesium, uric acid, glucose, cholesterol and triglycerides. […]

[2] = General effects of NCP-supplemented diet in rats (weight, behaviour, mortality, body composition); format: in vivo; details: for Initial weight: n = 7, before feeding period, mean ± SD; for Daily weight gain / Final weight / Weight gain: n = 7, mean ± SD
Procedure: as §1, §2, §3, §4

[3] = tested on: liver, kidney, tibialis, and jejunal and ileal mucosa; assay: Protein contents of other tissues after NCP-supplemented diet in rats; format: in vivo, Sprague-Dawley rats; details: between the three groups
Procedure: as §1, §2, §3
as §4, with “Two muscles of the hindlimb, tibialis (rich in type II fibres) and soleus (rich in type I fibres), and the right kidney were rapidly removed, weighed, frozen in liquid nitrogen, and stored at −80° C. until analysis.” left out, “determined. […]” for “determined.”

[4] = tested on: soleus (rich in type I fibres); assay: Soleus amino acid content after NCP-supplemented diet in rats; format: in vivo, Sprague-Dawley rats; design: Soleus Serine content / Soleus Asparagine content / Soleus Glutamate content / Soleus Glycine content / Soleus Citrulline content / Soleus Valine content / Soleus Isoleucine content / Soleus Leucine content / Soleus Tyrosine content / Soleus Phenylalanine content / Soleus Ornithine content / Soleus Histidine content / Soleus Lysine content / Soleus Arginine content / Soleus Proline content / Soleus Taurine content / Soleus Aspartate content / Soleus Threonine content: unit not given here
Procedure: as §1
as §2, with “[…]; […]).” for “NCP5 group) or 50 mg/kg/d (n=7; NCP50 group).”
as §3, §4
Biological parameters studied were: • in tissues: NCP, protein and amino acid contents • in plasma: amino acids, liver function tests (plasma aspartate aminotransferase, alanine aminotransferase, alkaline phosphatase, and bilirubin), muscle enzymes (plasma creatine kinase, and lactate dehydrogenase), plasma electrolytes (sodium, potassium, chloride, bicarbonates), total protein, urea, creatinine, calcium, phosphate, magnesium, uric acid, glucose, cholesterol and triglycerides. Results General Effects of N-carbamoyl Putrescine

[5] = tested on: soleus (rich in type I fibres); assay: Soleus protein content after NCP-supplemented diet in rats; format: in vivo, Sprague-Dawley rats
Procedure: as §1, §2, §3, §4, §5

[6] = rats, NCP 5 mg/kg/d in diet, two weeks
[7] = rats, NCP 50 mg/kg/d in diet, two weeks
[8] = rats, NCP 5 or 50 mg/kg/d in diet, two weeks

## NCCCCNC(N)=O [NCP, 1-(4-aminobutyl) urea]
[1]; NCP50 group vs NCP5, FIG. 1
  Plasma urea: higher
[1]; the two NCP-supplemented groups compared to control rats
  Plasma urea: no difference
[1]; three groups (control, NCP5, NCP50), data not shown
  plasma electrolytes, hepatic and muscular enzymes, creatinine, glucose, cholesterol, triglycerides and uric acid levels: No difference
[2]; mammals, after administration
  side effects: no side effects were noticed
[2]; rats, NCP 5 mg/kg group
  Initial weight: 264.9 ± 16 g
[2]; [6]
  Daily weight gain: 3.44 ± 0.58 g/day
  Final weight: 313.1 ± 18.1 g
  Weight gain: 48.1 ± 8.1 g
[2]; rats, NCP 50 mg/kg group
  Initial weight: 264.9 ± 8.2 g
[2]; [7]
  Daily weight gain: 3.65 ± 0.62 g/day
  Final weight: 316.1 ± 13.9 g
  Weight gain: 51.2 ± 8.7 g
[2]; [8]
  general behavior: No rats showed abnormal general behavior
  weight gain compared to controls: no difference
[2]; rats, NCP 5 or 50 mg/kg/d vs control, data not shown
  body composition (lean mass, fat mass, mass of the viscera, liver mass): no difference between the groups
[3]
  liver, kidney, tibialis, and jejunal and ileal mucosa protein contents: similar
[4]; NCP 5 mg/kg, n = 7, mean ± SD
  Soleus Alanine content: 1735 ± 385^ab μmol/g
  Soleus Arginine content: 381 ± 115
  Soleus Asparagine content: 519 ± 106
  Soleus Aspartate content: 4195 ± 703
  Soleus Citrulline content: 351 ± 53
  Soleus Glutamate content: 3753 ± 684
  Soleus Glutamine content: 7605 ± 1016^ab μmol/g
  Soleus Glycine content: 1932 ± 516
  Soleus Histidine content: 415 ± 50^a μmol/g
  Soleus Isoleucine content: 83 ± 17
  Soleus Leucine content: 103 ± 23
  Soleus Lysine content: 933 ± 222
  Soleus Ornithine content: 75 ± 12
  Soleus Phenylalanine content: 75 ± 19
  Soleus Proline content: 196 ± 42
  Soleus Serine content: 1933 ± 384
  Soleus Taurine content: 23882 ± 2585
  Soleus Threonine content: 512 ± 109
  Soleus Tyrosine content: 106 ± 15
  Soleus Valine content: 182 ± 22
[4]; NCP 50 mg/kg, n = 6, mean ± SD
  Soleus Alanine content: 2025 ± 182^b μmol/g
  Soleus Arginine content: 395 ± 62
  Soleus Asparagine content: 538 ± 124
  Soleus Aspartate content: 4742 ± 1443
  Soleus Citrulline content: 379 ± 65
  Soleus Glutamate content: 4074 ± 390
  Soleus Glutamine content: 8547 ± 988^b μmol/g
  Soleus Glycine content: 2145 ± 153
  Soleus Histidine content: 494 ± 6
  Soleus Isoleucine content: 91 ± 22
  Soleus Leucine content: 113 ± 32
  Soleus Lysine content: 1009 ± 168
  Soleus Ornithine content: 74 ± 15
  Soleus Phenylalanine content: 77 ± 11
  Soleus Proline content: 199 ± 26
  Soleus Serine content: 1964 ± 248
  Soleus Taurine content: 25223 ± 1987
  Soleus Threonine content: 571 ± 67
  Soleus Tyrosine content: 126 ± 21
  Soleus Valine content: 194 ± 24
[4]; with NCP administration, positive correlation of glutamine and alanine with dose (p=0.015, p=0.013)
  concentration of Glutamine, alanine and histidine in soleus muscle: significantly increased
[5]; NCP5 group (5 mg/kg/d, two weeks), control 12.7±1.8, p=0.018 vs control
  protein level in soleus: 14.5±0.7 g/100 g
[5]; NCP5 vs control, p=0.018
  protein level in soleus vs control group: higher
[5]; NCP50 group (50 mg/kg/d, two weeks), control 12.7±1.8
  protein level in soleus: 14.0±0.8 g/100 g

— patent US9533946B1, “N-carbamoylputrescine to enhance muscle protein synthesis” (CITRAGE, priority 2016, dated 2017)
